{"source": "paper PMC4579270", "about": "“Identification and Characterization of an Irreversible Inhibitor of CDK2” (Chemistry & Biology, 2015)", "key": {"[1]": {"tested_on": "human MCF-7 breast carcinoma cells", "design": "method as in Davies et al., 2002", "conditions": "ref Davies et al., 2002; cited from earlier work"}, "[2]": {"tested_on": "phosphorylation of Rb at Thr821 in SKUT-1B cells", "assay": "Inhibition of Rb phosphorylation in cells (western blot)", "type": "cell-based", "conditions": "for inhibition at 50 µM: Homo sapiens, Skut1B, 1 hr exposure", "method": "The cellular potency of NU6300 was examined by measuring the inhibition of Rb phosphorylation following exposure of SKUT-1B cells to the inhibitor for 1 hr. Pre-incubation with 50 μM NU6300 inhibited phosphorylation of Rb at […], a known CDK2 phosphorylation site, by 43%. […] This difference just reached statistical significance (p = 0.04). […] Representative of three different experiments. […] Protein expression levels of phospho-Rb ([…]) were normalized to the levels of total Rb in respective samples using densitometry. Relative protein expression levels are presented as percentage of inhibition of phosphorylation of Rb ([…]) compared with the control cells for each time point. Error bars represent the mean value and SD from three independent experiments. Statistical analysis was performed using the unpaired Student's t test, one-tailed. Western blot analysis was carried out as described previously ([Thomas et al., 2011]) using rabbit anti-[…] phospho-Rb antibody (Invitrogen) or mouse antihuman Rb antibody (BD Pharmingen) to detect phosphorylated and total retinoblastoma protein, respectively. Sample preparation is described in Supplemental Experimental Procedures. page 14: formate) before cryo-coolling. Data processing was carried out using programs of the CCP4 suite (CCP4, 1994). The structure of NU6300 bound to CDK2/cyclin A was solved by molecular replacement using Phaser (McCoy et al., 2007), using as the search model a high-resolution structure of a recruitment peptide bound to CDK2/cyclin A ((Cheng et al., 2006) PDB code 2CCH). A single clear solution was found with an inhibitor bound to each of the two copies of the binary complex in the asymmetric unit. This solution was then subjected to rigid body refinement in REFMAC (Murshudov et al., 1997), to reveal unambiguous electron density in the CDK2 ATP-binding site, consistent with the expected shape of the inhibitor. A model of NU6300 was created using Coot (Emsley et al., 2010). The inhibitor atoms were kept in all subsequent models during refinement carried out by additional rounds of manual rebuilding in Coot and restrained refinement in REFMAC5, including TLS refinement. Towards the end of refinement, waters were added using the Coot water picking utility and manually verified. Western blotting SKUT-1B cells (ATCC, Manassas, USA) were grown in MEM medium supplemented with non-essential amino acids, L-Glutamine, sodium pyruvate and 10% (v/v) foetal calf serum (Sigma, UK). […] Cells were harvested at different time points after the washout and lysed by adding PhosphoSafe extraction reagent (Merck, UK) containing protease inhibitor cocktail (Roche, UK) at the manufacturer's recommended dilution. The harvested cell suspension was placed in an eppendorf tube on ice, centrifuged at 13,000x g for 5 min, and the supernatant (cell lysate) removed for analysis. Subsequent western blot analysis was carried out as described in (Thomas et al., 2011) using rabbit anti-[…] phospho-Rb antibody (Invitrogen, Paisley, UK Cat No. 44-[…]) or mouse anti-human Rb antibody (BD Pharmingen, Oxford, UK Cat No. 554136) to detect phosphorylated and total retinoblastoma protein, respectively."}}, "note": "Read-outs that look alike come from different tables or passages of the source."}
{"smiles": "NS(=O)(=O)c1ccc(Nc2nc(OCC3CCCCC3)c3nc[nH]c3n2)cc1", "note": "[NU6102, 4-((6-(Cyclohexylmethoxy)-9H-purin-2-yl)amino)benzenesulfonamide]", "values": [{"measurement": "GI50", "setting": "[1]", "value": 8, "unit": "µM"}, {"measurement": "inhibitory activity lost after washout", "setting": "[2]; 50 μM, 1 hr of washout", "value": "just over half"}, {"measurement": "inhibition at 50 µM", "setting": "[2]; before washout, read-out: inhibition of phosphorylation of Rb at Thr821", "value": 85, "unit": "%"}, {"measurement": "inhibition at 50 µM", "setting": "[2]; then 1-hr washout in drug-free media, read-out: inhibition of phosphorylation of Rb at Thr821 after washout", "value": 40, "unit": "%"}]}
